Experimental data taken from ChEMBL document CHEMBL1127253, “Synthesis and in vitro gastrointestinal motility enhancing activity of 3-aryl-2-imidazolidinylidene propanedinitrile derivatives” (Bioorg Med Chem Lett, 1994).

Tests used:
[1] = target: T1, Acetylcholinesterase (Rattus norvegicus, UniProt P37136); assay: Inhibitory activity against acetylcholinesterase (AChE) from rat brain was determined
T1 sequence (P37136 whole entry): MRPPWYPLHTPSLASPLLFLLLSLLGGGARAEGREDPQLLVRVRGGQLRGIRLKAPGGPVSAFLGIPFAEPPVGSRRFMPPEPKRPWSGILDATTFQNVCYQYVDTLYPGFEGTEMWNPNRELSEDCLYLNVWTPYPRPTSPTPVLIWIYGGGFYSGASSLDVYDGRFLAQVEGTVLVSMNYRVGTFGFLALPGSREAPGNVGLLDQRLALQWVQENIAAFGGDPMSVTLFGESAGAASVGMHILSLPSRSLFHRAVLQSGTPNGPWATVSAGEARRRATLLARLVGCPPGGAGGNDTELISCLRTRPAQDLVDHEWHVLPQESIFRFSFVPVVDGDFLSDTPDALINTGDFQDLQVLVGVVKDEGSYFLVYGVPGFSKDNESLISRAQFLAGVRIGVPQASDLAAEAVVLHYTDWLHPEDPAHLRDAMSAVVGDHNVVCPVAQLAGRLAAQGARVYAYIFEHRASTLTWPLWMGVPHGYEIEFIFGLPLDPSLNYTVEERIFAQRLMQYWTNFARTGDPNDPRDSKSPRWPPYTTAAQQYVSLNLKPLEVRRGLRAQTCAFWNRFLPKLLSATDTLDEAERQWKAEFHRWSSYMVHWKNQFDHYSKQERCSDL

[2] = organism: Cavia porcellus; assay: In vitro gastrointestinal motility enhancing activity expressed as concentration of compound producing 30% potentiation of contractions induced by electrical stimulation in guinea pig; format: functional

Structure (SMILES)	IC50 [1] [nM]	EC30 [2] [µM]
COc1ccccc1N1CCN(CCNCc2ccc(CN3CCCCC3)o2)C1=C(C#N)C#N	66	0.49
COc1cccc(N2CCN(CCNCc3ccc(CN4CCCCC4)o3)C2=C(C#N)C#N)c1	14	0.014
COc1ccc(N2CCN(CCNCc3ccc(CN4CCCCC4)o3)C2=C(C#N)C#N)cc1	19	0.012
Cc1cccc(N2CCN(CCNCc3ccc(CN4CCCCC4)o3)C2=C(C#N)C#N)c1	13	0.019
N#CC(C#N)=C1NCCN1CCNCc1ccc(CN2CCCCC2)o1	30	0.016
N#CC(C#N)=C1N(CCNCc2ccc(CN3CCCCC3)o2)CCN1c1ccccc1	14	0.01
Cc1ccc(N2CCN(CCNCc3ccc(CN4CCCCC4)o3)C2=C(C#N)C#N)cc1	2.2	0.052
